Broadly, the IC50 is the concentration that inhibits the measured activity by half.

This note sets out measurements from patent publication US20240368178A1, “IMIDAZOCYCLIC COMPOUND AND APPLICATION THEREOF” (DONGBAO PURPLE STAR (HANGZHOU) BIOPHARMACEUTICAL CO., LTD., priority 2021, published 2024).

Each structure is given as a SMILES string.

The test system of one series is canine hepatocytes. In words: HMS CLint (liver) hepatocyte metabolic stability, dog. It is filed as in vitro ADME. On the procedure:
Experimental purpose: to test the metabolic stability of the test sample in human and rat liver cells.
• (1) test compound (10 mM), reference substance: 7-ethoxycoumarin (30 mM), 7-hydroxycoumarin (reference substance, 30 mM); • mouse hepatocytes with cell viability of 73.8%, supplier Cat No.: BioreclamationlVTM005052; • rat hepatocytes with cell viability of 78.3%, supplier Cat No.: BioreclamationlVTM00005-T; • canine hepatocytes with cell viability of 80.2%, supplier Cat No.: BioreclamationlVTM00205; • monkey liver cells with cell viability of 80.9%, supplier Cat No.: RILD HP—SXH-02M; • human hepatocytes with cell viability of 94.6%, supplier Cat No.: Bioreclamation IVTX008001. • (2) Buffer system:
Thawing medium: Williams' medium E containing 5% fetal bovine serum, 30% Percoll solution, and other auxiliary materials.
Incubation medium: Williams' medium E (without phenol red) containing 2 mM L-glutamine and 25 mM 4-(2-hydroxyethyl)-1-piperazineethanesulfonic acid.
Termination solution: acetonitrile containing 200 ng/mL tolbutamide and labetalol as internal standard. […]
The residual rates of the test compound and the control compound were determined using the following formula: […]
The elimination rate constant (k) of the test compound and the control compound in hepatocytes was calculated by plotting the logarithm of the residual rate against time. […]

In another series the target is CYP2C19 (Homo sapiens (Human), UniProt P33261). In words: Time-dependent inhibition (TDI) of CYP2C19 in human liver microsomes. It is filed as in vitro ADME. Here is the method: The time-dependent inhibitory effect of the test compound on the activity of human liver microsomal cytochrome P450 isoenzyme CYP2C19 was determined.
The experiment was divided into two groups. In the first group, human liver microsomes (HLM) were used as the incubation system. The test articles with a series of concentrations were added to the incubation system, followed by the addition of a coenzyme factor (NADPH) solution. The preincubation was carried out at 37° C. for 30 minutes. After preincubation, a probe substrate solution was added thereto. After a certain period of incubation, the reaction was terminated. The amount of probe substrate metabolites generated in the incubation solution was determined, and the enzyme activity was calculated. In the second group, human liver microsomes (HLM) were used as the incubation system. The test articles with a series of concentrations were added to the incubation system, followed by the addition of potassium phosphate buffer. The preincubation was carried out at 37° C. for 30 minutes. After preincubation, a mixture of NADPH and the probe substrate was added thereto. After a certain period of incubation, the reaction was terminated. The amount of probe substrate metabolites generated in the incubation solution was determined, and the enzyme activity was calculated. […]
Then, 147.5 μL of human liver microsomal working solution was added to the reaction plate, and the reaction plate was placed on ice for use; at this time, 2.50 μL of the test compound (N=1) and the working solution (N=2) of the positive control inhibitor at various concentrations were added to the corresponding wells, and the corresponding organic solvent was added to the group without inhibitors (test compound or positive inhibitor); the reaction plate was incubated for 10 minutes at 37° C., and then 50.0 μL of NADPH solution or potassium phosphate buffer was added to reaction wells of the first or second group, respectively, to start the reaction; the reaction plate was pre-incubated at 37° C. for 30 minutes; 50.0 μL of the substrate solution or a mixture of NADPH and the substrate was added to the reaction wells of the first or second group, respectively, to start the reaction. 20 minutes later, 250 μL of precooled acetonitrile solution (containing internal standards of 200 ng/mL tolbutamide and labetalol) was added to terminate the reaction; the reaction plate was placed on a shaker and shaken for 10 minutes to mix uniformly; then, the plate was centrifuged for 20 minutes at 4° C. and 4000 rpm; 200 μL of the supernatant was added to 200 μL of water to dilute the sample; the plate was finally sealed and shaken for 10 minutes to mix uniformly; the sample was then analyzed by LC/MS/MS.
A general note: Microsomes from liver hold many membrane-bound enzymes, among them those of drug oxidation.

Where [1] appears, read: 30 min preincubation with NADPH.
Where [2] appears, read: 30 min preincubation without NADPH.

Chain of CYP2C19 (P33261 whole entry): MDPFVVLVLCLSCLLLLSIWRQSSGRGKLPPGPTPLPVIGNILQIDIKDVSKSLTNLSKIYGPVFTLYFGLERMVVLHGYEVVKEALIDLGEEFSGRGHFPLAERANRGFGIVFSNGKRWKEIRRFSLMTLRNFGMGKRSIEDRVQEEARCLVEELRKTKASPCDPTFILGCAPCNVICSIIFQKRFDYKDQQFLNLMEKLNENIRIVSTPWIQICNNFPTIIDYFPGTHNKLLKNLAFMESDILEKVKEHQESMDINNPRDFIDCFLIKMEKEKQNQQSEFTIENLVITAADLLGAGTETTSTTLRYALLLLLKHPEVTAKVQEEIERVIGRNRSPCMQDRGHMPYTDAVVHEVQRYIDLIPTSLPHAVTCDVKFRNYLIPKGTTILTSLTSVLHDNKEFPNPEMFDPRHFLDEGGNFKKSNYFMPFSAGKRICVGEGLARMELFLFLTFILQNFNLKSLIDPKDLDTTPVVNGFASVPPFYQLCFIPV

For the compound `C[C@]1(c2ccc(Cl)cn2)Oc2cccc(C3CCN(Cc4nc5sc(C(=O)O)cc5n4C[C@@H]4CCO4)CC3)c2O1` (single isomer, unassigned) [Compound 002], the “HMS Dog” value in the series on canine hepatocytes is listed as 115.4 mL/min/kg. The IC50 is 29.2 µM on CYP2C19 (setting [1]) and more than 50 µM at CYP2C19 (setting [2]).
Consider `C[C@@]1(c2ccc(Cl)cn2)Oc2cccc(N3CCN(Cc4nc5sc(C(=O)O)cc5n4C[C@H]4CCO4)CC3)c2O1` [Compound 003], for which, in the series on canine hepatocytes, the “HMS Dog” value was 58.7 mL/min/kg. For the same compound, the IC50 against CYP2C19 (setting [1]) and against CYP2C19 (setting [2]) was more than 50 µM throughout.
